What was measured:
[1] = Crystal; DTA
[2] = Molar enthalpy of transition or fusion; conditions: Crystal; DSC
[3] = molar heat capacity at constant pressure; conditions: 101.33 kPa, Crystal

OC[C@@H](O)[C@@H](O)[C@H](O)[C@H](O)CO [D-mannitol]
Conditions | Molar enthalpy of transition or fusion [kcal/mol] | Normal melting temperature [°C]
[1] | – | 164.10
[2] | 13.1 | –

[3]
Conditions | molar heat capacity at constant pressure [J/K/mol]
80 K | 70.46
80.42 K | 71.86
84.12 K | 75.82
85 K | 76.73
87.06 K | 79
90 K | 82.37
90.04 K | 82.17
93.09 K | 85.24
95 K | 87.51
96.04 K | 88
99.05 K | 90.89
100 K | 92.23
102.11 K | 93.72
105 K | 96.64
105.11 K | 96.44
108.05 K | 98.92
110 K | 100.8
111.06 K | 101.4
114.14 K | 104
115 K | 104.8
117.16 K | 106.5
120 K | 108.7
120.11 K | 109
123.13 K | 111.5
125 K | 112.5
126.22 K | 113.8
129.26 K | 116.1
130 K | 116.2
132.27 K | 118.9
135 K | 120
135.24 K | 120.9
138.18 K | 123
140 K | 123.8
141.2 K | 125.4
144.28 K | 127.8
145 K | 127.7
147.31 K | 129.9
150 K | 131.6
150.31 K | 132.2
153.28 K | 134.4
155 K | 135.6
156.23 K | 136.7
159.25 K | 138.8
160 K | 139.7
162.37 K | 141.7
165 K | 143.9
165.49 K | 143.2
168.58 K | 146.4
170 K | 148.2
171.61 K | 149.2
174.59 K | 150.8
175 K | 152.5
177.6 K | 152.9
180 K | 156.9
180.59 K | 156.6
183.61 K | 159.2
185 K | 161.4
186.66 K | 162.1
189.7 K | 165
190 K | 166
192.75 K | 168.2
195 K | 170.6
195.81 K | 170.5
198.93 K | 173.9
200 K | 175.2
202.13 K | 176.6
205 K | 179.9
205.3 K | 180.9
208.4 K | 184.3
210 K | 184.6
211.46 K | 187.3
214.49 K | 189.7
215 K | 189.3
217.58 K | 192.1
220 K | 193.9
220.74 K | 195.4
223.88 K | 198.8
225 K | 198.6
226.99 K | 202.7
230 K | 203.2
230.03 K | 204.2
233.09 K | 207.6
235 K | 207.8
236.15 K | 210.5
239.22 K | 213.4
242.24 K | 215.7
245.33 K | 217.7
248.42 K | 220
251.42 K | 221.4
254.48 K | 223.2
257.61 K | 226.2
260.73 K | 228
263.83 K | 230.7
266.98 K | 233.6
270.15 K | 236.1
273.22 K | 239.5
276.28 K | 242.1
279.35 K | 245.4
282.41 K | 248.6
285.44 K | 251.6
288.45 K | 253.1
291.43 K | 256
294.39 K | 259
297.49 K | 260.6
300.61 K | 262.6
303.63 K | 264.9
306.66 K | 266.7
309.69 K | 268.4
312.78 K | 270.6
315.92 K | 272.9
319.06 K | 275.3
322.19 K | 277.9
325.3 K | 280.3
328.4 K | 282.6
331.49 K | 284.8
334.56 K | 286.1
337.63 K | 289
340.68 K | 291.4
343.78 K | 293.3
346.92 K | 295.5
350.05 K | 297.6
353.16 K | 299.6
356.26 K | 301.3
359.31 K | 303.7
362.51 K | 305.8
365.68 K | 308.4
368.86 K | 310.2
372.04 K | 311.9
375.21 K | 314
378.35 K | 316.7
381.44 K | 319
384.52 K | 320.9
387.64 K | 322.7
